# Assay results: patent US20250289829A1, “DEUBIQUITINASE INHIBITOR AND USE THEREOF” (CHASER THERAPEUTICS, INC., priority 2022, published 2025)
# What was measured:
# USP28 = molecular target: T1, USP28 (Homo sapiens, UniProt Q96RU2); test: USP28 activity by the ubiquitin-rhodamine 110 (Ub-Rh110) method; format: biochemical; details: purified USP28 4 nM, Ub-Rh110 125 nM, 30 min preincubation; read-out: Inhibitory activity (IC50) USP28
# T1 construct: purchased R&D Systems China Co., Ltd. (R&D Systems)
# T1 sequence (Q96RU2 1-1077): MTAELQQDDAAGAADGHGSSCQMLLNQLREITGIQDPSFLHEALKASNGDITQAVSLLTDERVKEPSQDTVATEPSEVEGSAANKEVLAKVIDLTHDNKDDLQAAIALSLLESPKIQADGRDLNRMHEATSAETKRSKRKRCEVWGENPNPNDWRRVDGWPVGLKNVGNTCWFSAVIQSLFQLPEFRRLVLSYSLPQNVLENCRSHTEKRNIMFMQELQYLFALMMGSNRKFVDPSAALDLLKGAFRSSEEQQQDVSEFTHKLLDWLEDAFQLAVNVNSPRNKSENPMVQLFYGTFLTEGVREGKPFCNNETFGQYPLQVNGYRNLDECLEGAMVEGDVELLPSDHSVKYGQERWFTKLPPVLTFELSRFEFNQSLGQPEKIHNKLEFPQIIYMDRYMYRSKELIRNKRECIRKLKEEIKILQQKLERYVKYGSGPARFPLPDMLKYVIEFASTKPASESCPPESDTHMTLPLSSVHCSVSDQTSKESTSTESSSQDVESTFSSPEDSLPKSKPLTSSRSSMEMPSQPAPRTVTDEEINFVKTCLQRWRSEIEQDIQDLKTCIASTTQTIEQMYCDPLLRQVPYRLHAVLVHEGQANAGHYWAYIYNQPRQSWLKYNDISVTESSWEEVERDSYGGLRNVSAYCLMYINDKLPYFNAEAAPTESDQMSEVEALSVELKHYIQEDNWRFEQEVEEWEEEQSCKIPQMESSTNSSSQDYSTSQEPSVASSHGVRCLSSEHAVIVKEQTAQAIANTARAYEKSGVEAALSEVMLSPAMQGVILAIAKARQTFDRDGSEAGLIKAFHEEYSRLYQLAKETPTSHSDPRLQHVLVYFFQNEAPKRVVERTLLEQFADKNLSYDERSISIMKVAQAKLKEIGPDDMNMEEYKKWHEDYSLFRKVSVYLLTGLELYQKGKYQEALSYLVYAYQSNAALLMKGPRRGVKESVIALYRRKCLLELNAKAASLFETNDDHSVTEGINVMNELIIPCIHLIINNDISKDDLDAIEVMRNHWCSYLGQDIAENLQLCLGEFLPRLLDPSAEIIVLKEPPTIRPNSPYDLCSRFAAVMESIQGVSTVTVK
# Procedure: USP28 activity was determined by the ubiquitin-rhodamine 110 (Ub-Rh110) method.
# Purified USP28 and a substrate Ub-Rh110 used for determining deubiquitinase activity were purchased from R&D Systems China Co., Ltd. (R&D Systems). First, test compounds were each dissolved in DMSO to prepare a 10 mM stock solution, and then the stock solution was diluted to the desired concentration (with a DMSO content of 0.5%) with a buffer solution [containing 20 mM Tris-HCl (pH 8.0), 2 mM CaCl2), 3 mM BME, 0.01% Prionex, and 0.01% Triton X-100]. The prepared test compound solutions at different concentrations were mixed uniformly with USP28 (final concentration: 4 nM) in a 96-well plate, and the mixture was incubated at r. t. for 30 min before the addition of Ub-Rh110 to 125 nM. The final volume of the whole reaction system was 20 μL. The released fluorescence (excitation wavelength: 485 nm, emission wavelength: 535 nm) was detected immediately on a microplate reader after the addition of the substrate. A blank control group (DMSO instead of test compound) and a substrate group (no USP28 added) were set simultaneously. The inhibitory rates of the test compounds for USP28 were calculated according to the following formula:
# Inhibition %=(1−[(fluorescence valuetest compound−fluorescence valuesubstrate)/(fluorescence valuecontrol−fluorescence valuesubstrate])×100%
# According to the inhibitory rates of the test compounds for USP28 under different concentrations, IC50 values were calculated.
# (§1) With reference to Example 2 and Example 3, USP28 and USP25 inhibitor activity tests were performed on representative example compounds of the present disclosure and the following comparative compound structures.
# USP25 = molecular target: T2, USP25 (Homo sapiens, UniProt Q9UHP3); test: USP25 activity by the Ub-Rh110 method; format: biochemical; details: purified USP25 15 nM, Ub-Rh110 125 nM; read-out: Inhibitory activity (IC50) USP25
# T2 construct: purchased R&D Systems
# T2 sequence (Q9UHP3 1-1055): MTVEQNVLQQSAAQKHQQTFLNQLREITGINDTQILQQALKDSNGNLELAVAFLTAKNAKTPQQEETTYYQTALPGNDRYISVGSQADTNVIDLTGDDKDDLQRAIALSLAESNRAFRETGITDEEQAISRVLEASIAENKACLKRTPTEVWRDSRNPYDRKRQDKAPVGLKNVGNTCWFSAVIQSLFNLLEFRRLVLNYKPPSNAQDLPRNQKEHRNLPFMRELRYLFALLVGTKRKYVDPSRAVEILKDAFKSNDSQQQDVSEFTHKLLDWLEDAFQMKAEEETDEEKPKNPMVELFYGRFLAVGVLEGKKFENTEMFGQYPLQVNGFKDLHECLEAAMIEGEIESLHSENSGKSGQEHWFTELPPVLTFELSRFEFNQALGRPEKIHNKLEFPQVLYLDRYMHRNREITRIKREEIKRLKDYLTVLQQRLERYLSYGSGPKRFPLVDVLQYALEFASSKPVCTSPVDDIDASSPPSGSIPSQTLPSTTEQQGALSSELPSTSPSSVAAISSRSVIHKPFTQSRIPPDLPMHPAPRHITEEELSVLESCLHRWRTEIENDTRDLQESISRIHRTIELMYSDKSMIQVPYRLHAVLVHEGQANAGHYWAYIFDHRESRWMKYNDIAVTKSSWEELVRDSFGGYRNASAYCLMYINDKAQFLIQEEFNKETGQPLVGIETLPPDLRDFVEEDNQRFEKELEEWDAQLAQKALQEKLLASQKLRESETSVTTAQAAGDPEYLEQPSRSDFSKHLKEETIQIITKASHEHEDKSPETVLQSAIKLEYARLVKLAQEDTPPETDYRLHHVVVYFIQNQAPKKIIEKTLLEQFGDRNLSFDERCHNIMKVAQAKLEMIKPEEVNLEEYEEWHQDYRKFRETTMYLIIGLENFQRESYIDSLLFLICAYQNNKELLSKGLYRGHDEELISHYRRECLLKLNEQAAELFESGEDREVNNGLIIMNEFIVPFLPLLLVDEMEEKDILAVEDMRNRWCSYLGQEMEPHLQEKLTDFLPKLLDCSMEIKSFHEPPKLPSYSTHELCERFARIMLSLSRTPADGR
# Procedure: USP25 activity was determined by the Ub-Rh110 method.
# Purified USP25 was purchased from R&D Systems. The experimental procedures were the same as those in Example 2. The final concentration of USP25 was 15 nM, the final concentration of the substrate Ub-Rh110 was 125 nM, and the final volume of the whole reaction system was 20 μL.
# as §1
SMILES,IC50 (USP28) [nM],IC50 (USP25) [nM]
CCn1ccc2c(NC)c(C(=O)N[C@@H]3CCc4cc(N5CC6CCC(C5)N6)ccc4C3)cnc21 [Compound I-26],50 to 500,500 to 1000
CNc1c(C(=O)NCCc2ccc(N3CC4CCC(C3)N4)cc2)cnc2c1ccn2CC(F)(F)F [Compound I-15],< 50,< 50
CCCNc1c(C(=O)NCCc2ccc(N3CC4CCC(C3)N4)cc2)cnc2c1ccn2CC [Compound I-04],1000 to 10000,> 10000
CCn1ccc2c(NC)c(C(=O)NCCc3ccc(N4CC5CCC(C4)N5)cc3F)nnc21 [Compound I-29],< 50,50 to 500
CCn1ccc2c(NC)c(C(=O)NCCc3c[nH]c4ccccc34)cnc21 [Compound I-08],< 50,50 to 500
CCn1ccc2c(NC)c(C(=O)NCCc3ccc(N4CC5CCC(C4)N5)cc3F)cnc21 [Compound I-05],< 50,50 to 500
CCn1ccc2c(NC)c(C(=O)NC[C@@H](C)c3ccc(N4CC5CCC(C4)N5)cc3)cnc21 [Compound I-22],50 to 500,500 to 1000
CNc1c(C(=O)NCCc2ccc(N3CCNCC3)cc2)cnc2c1ccn2CC(F)(F)F [Compound I-16],< 50,< 50
CCn1ccc2c(NC)c(C(=O)NCC(C)(C)c3ccc(N4CC5CCC(C4)N5)cc3F)cnc21 [Compound I-06],50 to 500,500 to 1000
CCn1ccc2c(NC)c(C(=O)N[C@@H]3COc4cc(N5CC6CCC(C5)N6)ccc4C3)cnc21 [Compound I-24],50 to 500,500 to 1000
CCn1ccc2c(NC)c(C(=O)NCCc3ccc(N4CCNCC4)cc3)nnc21 [Compound I-28],< 50,< 50
CCCCn1ccc2c(NC)c(C(=O)NCCc3ccc(N4CC5CCC(C4)N5)cc3)cnc21 [Compound I-14],< 50,< 50
CNc1c(C(=O)NCCc2ccc(N3CC4CCC(C3)N4)cc2)cnc2c1ccn2C [Compound I-12],< 50,50 to 500
CCNc1c(C(=O)NCCc2ccc(N3CC4CCC(C3)N4)cc2)cnc2c1ccn2CC [Compound I-03],500 to 1000,500 to 1000
"CCn1ccc2c(Cl)c(C(=O)NCCc3ccc(N4CC5CCC(C4)N5)cc3)cnc21 [Compound I-01, N-4-(3,8-diazabicyclo[3.2.1]octan-3-yl)phenethyl-4-chloro-1-ethyl-1H-pyrrolo[2,3-b]pyridine-5-carboxamide]",1000 to 10000,1000 to 10000
CCn1ccc2c(NC)c(C(=O)N[C@H]3COc4cc(N5CC6CCC(C5)N6)ccc4C3)cnc21 [Compound I-23],< 50,< 50
CCn1ccc2c(NC)c(C(=O)NCCc3ccc(C4C5CCC4CNC5)cc3)cnc21 (stereo not shown) [Compound I-18],–,50 to 500

SMILES,IC50 (USP28) [nM],IC50 (USP25) [nM]
CCn1ccc2c(NC)c(C(=O)NCCc3ccc(OC)c(OC)c3)cnc21 [Compound I-09],50 to 500,50 to 500
COc1c(C(=O)NCCc2ccc(N3CC4CCC(C3)N4)cc2)cnc2c1ccn2C [Compound I-31],1000 to 10000,> 10000
CCn1ccc2c(NC)c(C(=O)NCCc3ccc(N4C5CCC4CNC5)cc3)cnc21 [Compound I-19],< 50,50 to 500
CCCn1ccc2c(NC)c(C(=O)NCCc3ccc(N4CC5CCC(C4)N5)cc3)cnc21 [Compound I-13],< 50,< 50
CCn1ccc2c(NC)c(C(=O)NCCc3ccc(Br)cc3)cnc21 [Compound I-10],–,> 10000
CNc1c(C(=O)NCCc2ccc(N3CC4CCC(C3)N4)cc2)cnc2[nH]ccc12 [Compound I-11],50 to 500,500 to 1000
CCn1ccc2c(NC)c(C(=O)NC[C@H](C)c3ccc(N4CC5CCC(C4)N5)cc3)cnc21 [Compound I-21],50 to 500,500 to 1000
CCn1ccc2c(NC)c(C(=O)NCCc3ccc(N4CC5CCC(C4)N5)cc3)nnc21 [Compound I-27],< 50,< 50
CCn1cc(Cl)c2c(NC)c(C(=O)NCCc3ccc(N4CC5CCC(C4)N5)cc3)cnc21 [Compound I-30],< 50,50 to 500
CCn1ccc2c(OC)c(C(=O)NCCc3ccc(N4CC5CCC(C4)N5)cc3)cnc21 [Compound I-32],50 to 500,1000 to 10000
CCn1ccc2c(NC)c(C(=O)N[C@H]3CCc4cc(N5CC6CCC(C5)N6)ccc4C3)cnc21 [Compound I-25],< 50,50 to 500
CCn1ccc2c(NC)c(C(=O)NCCc3ccc(C4CC5CCC(C4)N5)cc3)cnc21 (stereo not shown) [Compound I-17],< 50,50 to 500
"CCn1ccc2c(NC)c(C(=O)NCCc3ccc(N4CC5CCC(C4)N5)cc3)cnc21 [Compound I-02, N-4-(3,8-diazabicyclo[3.2.1]octan-3-yl)phenethyl-1-ethyl-4-methylamino-1H-pyrrolo[2,3-b]pyridine-5-carboxamide]",< 50,< 50
CCn1ccc2c(OC)c(C(=O)NCCc3ccc(N4CCNCC4)cc3)cnc21 [Compound I-33],50 to 500,1000 to 10000
CCn1ccc2c(NC)c(C(=O)NCCc3ccc(C4CCNCC4)cc3)cnc21 [Compound I-20],< 50,50 to 500
CCn1ccc2c(NC)c(C(=O)NCCc3ccc(N4CCNCC4)cc3)cnc21 [Compound I-07],< 50,< 50
